Measured values from publication PMC6197257 (Scientific Reports, 2018).

Assays:
CYP3A4 = system: CYP3A4; parameters: method as in PMID 26712778, PMID 22943175; settings: competitive inhibitor; cited from earlier work
anti-3MGA MAb = assay: competitive ELISA cross-reactivity of anti-3MGA MAb; assay type: binding, mouse; settings: CR = IC50 for 3MGA / IC50 for compound x 100, 3MGA calibrated as 100%
Description: To activate the hapten 3MGA for the preparation of anti-3MGA MAb, the 3MGA-KLH conjugate was synthesized by using a model based on the carbodiimide method with both EDC and NHS reagents. 3MGA-HSA was also prepared using the same method, and was used for ELISA. We also evaluated the hapten number of the 3MGA-HSA conjugate by MALDI-TOF MS analysis. […] The MAb was developed by using the same methods described in our previous study. Hybridomas secreting antibodies recognizing 3MGA were selected by ELISA and then subcloned 4 times by the limited dilution method. […] The heavy chain of the obtained MAb was classified using a Calbiochem mouse hybridoma subisotyping kit (EMD Biosciences, Darmstadt, Germany), whereas the light chain was estimated using an IsoQuick^TM mouse monoclonal isotyping strip (Sigma) according to the manufacturer’s instructions.
3MGA-HSA (1 µg/ml in 50 mM carbonate buffer, pH 9.6) was added into a 96-well plate (Nagel Nunc, Penfield, NY, USA) (100 µl/well), and incubated at 37 °C for 1 h. After the removal of 3MGA-HSA, the wells were washed with 200 µl/well PBS containing 0.05% Tween 20 (T-PBS) for 3 times. The wells were incubated with 300 µl/well of 5% skim milk (Morinaga-milk, Tokyo, Japan) at 4 °C overnight. […] After the wells were washed with T-PBS 3 times, HRP-labeled goat anti-mouse IgG (Fc specific) antibody (1:1,000 dilution with T-PBS) was added into the wells (100 µl/well), and the plate was incubated at 37 °C for 1 h. Next, the wells were washed with T-PBS 3 times, the substrate solution (0.006% H2O2 in 200 mM citrate buffer, pH 4.0/H2O/0.6 mg/ml ABTS 10:9:1) was added into the wells (100 µl/well), and incubated at room temperature for 15 min.

CYP2C9 = system: CYP2C9; parameters: method as in PMID 26712778, PMID 22943175; settings: competitive inhibitor; cited from earlier work
rat kidney slices = assay: uptake by rat kidney slices; assay type: in vitro ADME; settings: pooled plasma of female EHBRs, pH 5.5, 2 h
Description: Female SD rats (9-week-old) were treated with urethane (1 g/kg, i.p.), and their kidneys were collected. After removal of the capsule, the kidneys were sliced at approximately 0.5-mm thickness in the frontal section of the organ, using a tissue slicer (Natsume Seisakusyo, Tokyo, Japan) and then cut at the renal hilus into two halves. The slices were pre-incubated at either 4 or 37 °C for 15 min in 24-well plates with 0.3 ml of the incubation medium (137 mM NaCl, 5.4 mM KCl, 0.95 mM CaCl2, 0.81 mM MgSO4, 0.44 mM KH2PO4, 0.25 mM Na2HPO4, 5.5 mM glucose, 10 mM MES, adjusted to pH 5.5). Five ml of pooled female EHBR plasma samples was lyophilized, and dissolved in 5 ml of the incubation medium. […] After washing with PBS three times, the kidney slices were homogenated in PBS using sonication, and the concentrations of protein were measured as mentioned above. […]
LC-ESI(+)MS/MS analysis was conducted at the following conditions: column, Scherzo SM-C18 (3 μm, 3 mm i.d. ×100 mm, Imtakt, Kyoto, Japan); mobile phase, (A) 5 mM AcNH4, (B) 125 mM AcNH4/acetonitrole 1:4, at a flow rate of 0.3 ml/min, with the following gradient profile: A:B = 50:50–0:100 (0–3 min) and 0:100 (3–10 min); compound 1 (5.8 min), astragaloside IV (3.0 min), GA (8.7 min); the transitions monitored were the same as described in the previous section. […]

[1] = pharmacokinetics in EHBRs orally treated with GA (200 mg/kg), LC-MS/MS; assay type: in vivo, Eisai Hyperbilirubinemia rats (EHBRs); settings: Eisai Hyperbilirubinemia rats (EHBR), rat, plasma; female EHBRs, GA 200 mg/kg oral, 12 h; read-out: plasma concentration 12 h after GA treatment
Description: Female SD rats or EHBRs (9-week-old) were anesthetized by an intraperitoneal (i.p.) injection of urethane (1 g/kg) and their jugular veins were exposed. […] Aliquots (10 µl) of plasma or urine were mixed with 20 µl of subtilisin (0.91 U/ml), incubated at 37 °C for 30 min, followed by the addition of 70 µl of astragalloside IV solution (1 µg/ml in ethanol containing 0.5% formic acid), and kept at −20 °C for 30 min.

[2] = concentrations in pooled plasma of EHBRs 12 h after oral GA (200 mg/kg); assay type: in vivo; settings: Eisai Hyperbilirubinemia rats (EHBR), rat
Description: Three female and three male EHBRs (9-week-old, respectively) were injected with urethane (1 g/kg, i.p.), and orally treated with an aqueous GA aqueous suspension (200 mg/kg in 1% CMC). Twelve h after the treatment, blood was collected from the abdominal vena cava, and the plasma samples of each sex rat were pooled.
LC-ESI(+)MS/MS analysis was conducted at the following conditions: column, Scherzo SM-C18 (3 μm, 3 mm i.d. ×100 mm, Imtakt, Kyoto, Japan); mobile phase, (A) 5 mM AcNH4, (B) 125 mM AcNH4/acetonitrole 1:4, at a flow rate of 0.3 ml/min, with the following gradient profile: A:B = 50:50–0:100 (0–3 min) and 0:100 (3–10 min); compound 1 (5.8 min), astragaloside IV (3.0 min), GA (8.7 min); the transitions monitored were the same as described in the previous section. Linear regressions over the concentration range 0.08–2 µM for compound 1 and 3.2 nM–2 µM for GA were examined using the peak-area ratio of the compounds to their internal standards and the least-squares method (r^2 > 0.98).

CYP2C19 = system: CYP2C19; parameters: method as in PMID 26712778, PMID 22943175; settings: competitive inhibitor; cited from earlier work

SMILES | cross-reactivity of anti-3MGA MAb (anti-3MGA MAb) | further results
CC1(C)[C@@H](O)CC[C@]2(C)[C@H]3C(=O)C=C4[C@@H]5C[C@@](C)(C(=O)O)CC[C@]5(C)CC[C@@]4(C)[C@]3(C)CC[C@@H]12 [GA, 18β-glycyrrhetinic acid] | 1.04% | IC50 (CYP3A4): 8.2 to 14 µM; IC50 (CYP2C9): 33 to 43 µM; uptake by kidney slices at 37 °C compared with 4 °C (rat kidney slices): similar; concentration at 12 h [1]: 5.9 µM; concentration at 12 h ([2]; female, read-out: concentration in pooled plasma, female EHBRs): 7 µM; concentration at 12 h ([2]; male, read-out: concentration in pooled plasma, male EHBRs): 3.2 µM; IC50 (CYP2C19): 41 to 74 µM
CC1(C)[C@@H](O[C@H]2O[C@H](C(=O)O)[C@@H](O)[C@H](O)[C@H]2O[C@@H]2O[C@H](C(=O)O)[C@@H](O)[C@H](O)[C@H]2O)CC[C@]2(C)[C@H]3C(=O)C=C4[C@@H]5C[C@@](C)(C(=O)O)CC[C@]5(C)CC[C@@]4(C)[C@]3(C)CC[C@@H]12 [GL, glycyrrhizin] | 0.22% | 
CC(C)=CCC[C@](C)(O[C@@H]1O[C@H](CO[C@@H]2O[C@H](CO)[C@@H](O)[C@H](O)[C@H]2O)[C@@H](O)[C@H](O)[C@H]1O)[C@H]1CC[C@]2(C)[C@@H]1[C@H](O)C[C@@H]1[C@@]3(C)CC[C@H](O[C@@H]4O[C@H](CO)[C@@H](O)[C@H](O)[C@H]4O[C@@H]4O[C@H](CO)[C@@H](O)[C@H](O)[C@H]4O)C(C)(C)[C@@H]3CC[C@]12C [ginsenoside Rb1] | less than 0.02% | 
C[C@]1(C(=O)O)CC[C@]2(C)CC[C@]3(C)C(=CC(=O)[C@@H]4[C@@]5(C)CC[C@H](O[C@@H]6O[C@H](C(=O)O)[C@@H](O)[C@H](O)[C@H]6O[C@@H]6O[C@H](C(=O)O)[C@@H](O)[C@H](O)[C@H]6O)[C@](C)(CO)[C@@H]5CC[C@]43C)[C@@H]2C1 [licorice saponin G2] | less than 0.02% | 
O=C1C[C@@H](c2ccc(O[C@@H]3O[C@H](CO)[C@@H](O)[C@H](O)[C@H]3O)cc2)Oc2cc(O)ccc21 [liquiritin] | less than 0.02% | 
C[C@@]12C[C@@]3(O)O[C@@H](O1)[C@]1(COC(=O)c4ccccc4)[C@H]3C[C@@]12O[C@@H]1O[C@H](CO)[C@@H](O)[C@H](O)[C@H]1O [paeoniflorin] | less than 0.02% | 
C[C@H]1O[C@@H](O[C@H]2CC[C@@]3(C)[C@@H](CC[C@]4(C)[C@@H]3C=C[C@]35OC[C@@]6(CCC(C)(C)C[C@H]63)[C@@H](O)C[C@]54C)[C@]2(C)CO)[C@H](O)[C@@H](O[C@@H]2O[C@H](CO)[C@@H](O)[C@H](O)[C@H]2O)[C@H]1O [saikosaponin a] | less than 0.02% | 
